Experimental data published in ChEMBL document CHEMBL2034951 (J Med Chem, 2011).
Calls of active or inactive are those of the source. The rule behind the calls is not given here.

Columns and labels:
[1] = target: T1, Prostaglandin G/H synthase 1 (Ovis aries) (UniProt P05979); test: Reversible binding to ram seminal vesicle COX1 at 300 uM at 600 MHz and 37 degC by saturation transfer difference 1[H]NMR spectroscopy
T1 sequence (whole entry): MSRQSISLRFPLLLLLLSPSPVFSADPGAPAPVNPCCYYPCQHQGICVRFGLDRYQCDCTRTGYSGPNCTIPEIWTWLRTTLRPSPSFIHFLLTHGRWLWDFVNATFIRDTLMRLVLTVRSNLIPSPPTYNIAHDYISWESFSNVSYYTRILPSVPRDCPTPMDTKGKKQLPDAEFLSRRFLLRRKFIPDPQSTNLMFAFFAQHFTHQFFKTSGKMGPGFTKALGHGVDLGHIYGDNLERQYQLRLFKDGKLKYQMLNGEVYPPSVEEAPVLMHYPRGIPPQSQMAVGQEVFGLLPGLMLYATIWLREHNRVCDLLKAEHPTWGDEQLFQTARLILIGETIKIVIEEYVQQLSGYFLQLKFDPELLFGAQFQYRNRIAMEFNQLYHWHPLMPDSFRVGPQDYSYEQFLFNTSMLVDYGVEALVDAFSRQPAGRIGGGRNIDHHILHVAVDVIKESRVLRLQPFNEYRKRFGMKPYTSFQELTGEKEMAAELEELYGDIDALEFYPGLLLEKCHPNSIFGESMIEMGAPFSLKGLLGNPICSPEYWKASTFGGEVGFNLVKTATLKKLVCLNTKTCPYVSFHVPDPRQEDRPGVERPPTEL

[2] = target: T2, Prostaglandin G/H synthase 2 (Homo sapiens, UniProt P35354); test: Inhibition of human COX2 measured after pre-incubation of enzyme with compound
T2 sequence (P35354 whole entry): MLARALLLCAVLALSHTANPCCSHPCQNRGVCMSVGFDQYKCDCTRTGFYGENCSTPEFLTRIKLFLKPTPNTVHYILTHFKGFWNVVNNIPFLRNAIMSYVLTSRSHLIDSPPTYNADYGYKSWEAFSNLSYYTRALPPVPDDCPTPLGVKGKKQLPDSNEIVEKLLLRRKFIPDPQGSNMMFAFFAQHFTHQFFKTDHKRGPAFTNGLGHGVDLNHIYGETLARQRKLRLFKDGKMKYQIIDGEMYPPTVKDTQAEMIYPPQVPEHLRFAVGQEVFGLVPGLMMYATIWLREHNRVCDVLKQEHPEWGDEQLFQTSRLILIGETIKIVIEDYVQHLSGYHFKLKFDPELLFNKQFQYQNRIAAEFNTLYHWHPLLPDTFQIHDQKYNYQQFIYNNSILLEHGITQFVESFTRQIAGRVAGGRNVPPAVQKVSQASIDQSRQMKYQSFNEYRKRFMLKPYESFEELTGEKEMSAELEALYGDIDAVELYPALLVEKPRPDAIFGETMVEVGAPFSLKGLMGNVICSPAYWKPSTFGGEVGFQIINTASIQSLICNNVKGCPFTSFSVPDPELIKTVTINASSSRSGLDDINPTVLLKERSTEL

[3] = target: T2, Prostaglandin G/H synthase 2; test: Instantaneous inhibition of human COX2 measured immediately after incubation of enzyme with compound

| Activity [1] | IC50 [2] [µM] | IC50 [3] [µM] | SMILES |
| --- | --- | --- | --- |
| Active | – | – | CC(C)Cc1ccc(C(C)C(=O)O)cc1 (stereo not given) |
| Active | – | – | O=C(O)Cc1ccccc1Nc1c(Cl)cccc1Cl |
| Active | 0.12 | 60.5 | O=C(c1ccccc1)c1ccc2n1CCC2C(=O)O (racemic) [KETOROLAC TROMETHAMINE] |
